Test results published in patent US10791730B2, “Composition and methods for cryopreservation of hUTC” (DePuy Synthes Products, Inc., priority 2016, dated 2020).

Test system: umbilical cord tissue
Experiment: Isolation of cells from umbilical cord tissue using varying enzyme combinations
Type: cell-based, human
Set-up: key: + = good; ++ = very good; +++ = excellent; X = no success
Conditions: enzyme digest of umbilical cord tissue
Protocol: Umbilical cords were obtained from National Disease Research Interchange (NDRI, Philadelphia, Pa.). The tissues were obtained following normal deliveries. The cell isolation protocols were performed aseptically in a laminar flow hood. To remove blood and debris, the cord was washed in phosphate buffered saline (PBS; Invitrogen, Carlsbad, Calif.) in the presence of penicillin at 100 U/ml, streptomycin at […] and amphotericin B at 0.25 μg/ml (Invitrogen Carlsbad, Calif.). The tissues were then mechanically dissociated in 150 cm^2 tissue culture plates in the presence of 50 ml of medium (DMEM-low glucose or DMEM-high glucose; Invitrogen) until the tissue was minced into a fine pulp. The chopped tissues were transferred to 50 ml conical tubes (approximately 5 g of tissue per tube).
The tissue was then digested in either DMEM-low glucose medium or DMEM-high glucose medium, each containing penicillin at 100 U/ml, streptomycin at […], amphotericin B at 0.25 μg/ml and the digestion enzymes. In some experiments an enzyme mixture of collagenase and dispase was used (“C:D”) (collagenase (Sigma, St Louis, Mo.), 500 U/ml; and dispase (Invitrogen), 50 U/ml, in DMEM-Low glucose medium). In other experiments a mixture of collagenase, dispase and hyaluronidase (“C:D:H”) was used (C:D:H=collagenase, 500 U/ml; dispase, 50 U/ml; and hyaluronidase (Sigma), 5 U/ml, in DMEM-Low glucose). The conical tubes containing the tissue, medium and digestion enzymes were incubated at 37° C. in an orbital shaker (Environ, Brooklyn, N.Y.) at 225 rpm for 2 hours.
After digestion, the tissues were centrifuged at 150×g for 5 minutes, the supernatant was aspirated. The pellet was resuspended in 20 ml of growth medium (DMEM:Low glucose (Invitrogen), 15% (v/v) fetal bovine serum (FBS; defined fetal bovine serum; Lot #AND18475; Hyclone, Logan, Utah), 0.001% (v/v) 2-mercaptoethanol (Sigma), penicillin at 100 U/ml, streptomycin at 100 μg/ml, and amphotericin B at 0.25 μg/ml (each from Invitrogen, Carlsbad, Calif.)). The cell suspension was filtered through a 70 μm nylon BD FALCON Cell Strainer (BD Biosciences, San Jose, Calif.). An additional 5 ml rinse comprising growth medium was passed through the strainer. The cell suspension was then passed through a 40-μm nylon cell strainer (BD Biosciences, San Jose, Calif.) and chased with a rinse of an additional 5 ml of growth medium.
The filtrate was resuspended in growth medium (total volume 50 ml) and centrifuged at 150×g for 5 minutes. The supernatant was aspirated and the cells were resuspended in 50 ml of fresh growth medium. […]
After the final centrifugation, supernatant was aspirated and the cell pellet was resuspended in 5 ml of fresh growth medium. The number of viable cells was determined using trypan blue staining. […]

Row | Substance | Cell Expansion | Cells Isolated
1 | Collagenase | X | X
2 | Hyaluronidase | X | X
